# Key:
# Cav1.2 channel = molecular target: T1, Cav1.2 channel (Homo sapiens, UniProt Q13936); assay: Cardiotoxicity fluorescence-based assay, Cav1.2 channel; assay type: cell-based; settings: HEK293 cells
# T1 construct: expressed in transfected cells; host or cells: HEK293
# Experimental: Fluorescence-based assays were performed using HEK293 cell lines that stably express the Nav1.5-channel, Cav1.2-channel or hERG K+-channel, using FMP Red Dye (Molecular Devices), calcium-sensitive fluorescent dye Fluo-4 (Invitrogen) and FIuxOR™ reagent (Invitrogen), respectively, and a FLIPR Tetra High-Throughput Cellular Screening System (Molecular Devices), according to manufacturer's protocols (Molecular Devices). Tetrodotoxin (TTX), israpidine and nicarpidine, and astemizole and haloperidol were used as standard sodium channel, calcium channel, and hERG channel blockers. Data were analyzed using Genedata Screener.
# CYP3A4 = molecular target: T2, CYP3A4 (Homo sapiens, UniProt P08684); assay: CYP450 enzyme inhibition assay, CYP3A4; assay type: in vitro ADME; settings: human liver microsomes; for IC50: testosterone probe
# T2 construct: containing Human Liver Microsomes (HLM) (0.5 mg/mL); from tissue; host or cells: human liver microsomes
# Experimental: Protocol was based on literature [Perez-Del Palacio et al. (2017) Front Pharmacol 8, 202]. Assessment of CYP450 inhibition was conducted in 96-well plate format at 37° C. Test compounds were dissolved in DMSO/acetonitrile (2 μL) and diluted in 98 μL NADPH solution (2 mM). Reactions were started by addition of 100 μL potassium phosphate buffer (200 mM, pH 7.4) containing Human Liver Microsomes (HLM) (0.5 mg/mL). Probe reactions for CYP3A4, CYP2D6 and CYP2C9 were conducted with 50 μM testosterone, 22 μM dextromethorphan and 10 μM diclofenac for 15 min. Reactions were terminated with the addition of a quench solution (90 μL) of acetonitrile containing internal standards for LC-MS/MS determination (60 ppb cortisone, 100 ppb 4′-hydroxydiclofenac 13C6, 60 ppb levallorphan).
# [1] = Plasma protein binding assay (rapid equilibrium dialysis); assay type: in vitro ADME; settings: for Protein binding: rapid equilibrium dialysis, 5 μM, 5 h
# Experimental: Protocol was based on literature [Kumar Singh et al. (2012)1 Bioeq. Bioay. S14]. Rapid equilibrium dialysis was performed with RED device inserts (Thermo Scientific, Meridian Rd., Rockford, Ill.) containing dialysis membrane with a molecular weight cut-off of 8,000 Daltons. Serum (200 μL) containing test compound (5 μM) was added to the serum chamber of the insert and 350 μL of buffer was added to the buffer chamber of the insert. Dialysis was done at 37° C. with shaking at 100 rpm for 5 h. Following dialysis, an aliquot of 50 μL was removed from each well (plasma and buffer side) and diluted with an equal volume of opposite matrix to nullify the matrix effect. Then a fraction (50 μL) of each dialyzed sample was crashed with 150 μL of acetonitrile containing internal standard and vortexed for 1 min. The samples were centrifuged at 13300 rpm at 4° C. for 12 min and 100 μL of supernatant was used for LC-MS/MS analysis.
# [2] = system: PTZ-induced seizures in zebrafish larvae; assay: Zebrafish PTZ seizure model, behavioral analysis; assay type: in vivo, Danio rerio; settings: lower concentrations (MTC/2, MTC/4), 2 hours incubation
# T2 sequence (P08684 whole entry): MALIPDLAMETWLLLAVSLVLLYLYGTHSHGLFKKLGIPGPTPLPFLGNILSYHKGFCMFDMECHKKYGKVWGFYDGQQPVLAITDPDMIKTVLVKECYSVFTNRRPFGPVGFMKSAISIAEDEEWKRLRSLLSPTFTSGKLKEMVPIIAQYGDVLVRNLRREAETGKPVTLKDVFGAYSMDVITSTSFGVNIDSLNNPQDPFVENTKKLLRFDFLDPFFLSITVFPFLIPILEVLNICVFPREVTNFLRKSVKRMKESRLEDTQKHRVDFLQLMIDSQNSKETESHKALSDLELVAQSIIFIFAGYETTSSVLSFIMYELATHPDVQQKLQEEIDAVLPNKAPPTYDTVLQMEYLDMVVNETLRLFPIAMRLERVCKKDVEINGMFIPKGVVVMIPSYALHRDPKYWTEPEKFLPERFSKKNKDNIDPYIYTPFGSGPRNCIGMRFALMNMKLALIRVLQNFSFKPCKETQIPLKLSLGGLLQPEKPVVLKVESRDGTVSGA
# T1 sequence (P54289 25-1103): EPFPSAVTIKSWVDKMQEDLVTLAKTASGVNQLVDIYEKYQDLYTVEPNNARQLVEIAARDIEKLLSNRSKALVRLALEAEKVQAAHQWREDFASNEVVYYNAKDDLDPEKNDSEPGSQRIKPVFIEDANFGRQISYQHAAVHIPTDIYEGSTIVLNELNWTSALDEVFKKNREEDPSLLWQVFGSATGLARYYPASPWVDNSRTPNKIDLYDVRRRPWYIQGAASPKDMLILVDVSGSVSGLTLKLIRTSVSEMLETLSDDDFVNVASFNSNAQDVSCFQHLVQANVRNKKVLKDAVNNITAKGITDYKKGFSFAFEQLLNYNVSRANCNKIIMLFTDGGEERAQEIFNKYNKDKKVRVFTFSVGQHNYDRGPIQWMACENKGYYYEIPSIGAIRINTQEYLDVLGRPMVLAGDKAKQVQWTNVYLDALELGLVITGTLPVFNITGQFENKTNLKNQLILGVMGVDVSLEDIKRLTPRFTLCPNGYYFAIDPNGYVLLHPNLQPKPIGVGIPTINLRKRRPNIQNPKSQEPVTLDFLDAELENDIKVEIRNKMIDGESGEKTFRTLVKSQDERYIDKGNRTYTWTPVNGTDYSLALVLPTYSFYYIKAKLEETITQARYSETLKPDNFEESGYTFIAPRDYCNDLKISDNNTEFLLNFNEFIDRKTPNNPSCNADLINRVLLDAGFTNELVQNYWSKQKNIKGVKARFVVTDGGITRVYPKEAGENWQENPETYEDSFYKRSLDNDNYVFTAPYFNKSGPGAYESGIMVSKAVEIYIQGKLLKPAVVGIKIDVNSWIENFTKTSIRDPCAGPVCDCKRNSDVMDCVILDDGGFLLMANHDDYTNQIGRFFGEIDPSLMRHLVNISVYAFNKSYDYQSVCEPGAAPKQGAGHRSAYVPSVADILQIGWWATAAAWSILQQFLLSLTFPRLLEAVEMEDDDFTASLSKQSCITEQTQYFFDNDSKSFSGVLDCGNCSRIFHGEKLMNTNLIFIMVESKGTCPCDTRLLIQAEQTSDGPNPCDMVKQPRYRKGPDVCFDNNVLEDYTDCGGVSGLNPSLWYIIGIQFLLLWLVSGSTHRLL
# T1 sequence (Q08289 whole entry, further chain): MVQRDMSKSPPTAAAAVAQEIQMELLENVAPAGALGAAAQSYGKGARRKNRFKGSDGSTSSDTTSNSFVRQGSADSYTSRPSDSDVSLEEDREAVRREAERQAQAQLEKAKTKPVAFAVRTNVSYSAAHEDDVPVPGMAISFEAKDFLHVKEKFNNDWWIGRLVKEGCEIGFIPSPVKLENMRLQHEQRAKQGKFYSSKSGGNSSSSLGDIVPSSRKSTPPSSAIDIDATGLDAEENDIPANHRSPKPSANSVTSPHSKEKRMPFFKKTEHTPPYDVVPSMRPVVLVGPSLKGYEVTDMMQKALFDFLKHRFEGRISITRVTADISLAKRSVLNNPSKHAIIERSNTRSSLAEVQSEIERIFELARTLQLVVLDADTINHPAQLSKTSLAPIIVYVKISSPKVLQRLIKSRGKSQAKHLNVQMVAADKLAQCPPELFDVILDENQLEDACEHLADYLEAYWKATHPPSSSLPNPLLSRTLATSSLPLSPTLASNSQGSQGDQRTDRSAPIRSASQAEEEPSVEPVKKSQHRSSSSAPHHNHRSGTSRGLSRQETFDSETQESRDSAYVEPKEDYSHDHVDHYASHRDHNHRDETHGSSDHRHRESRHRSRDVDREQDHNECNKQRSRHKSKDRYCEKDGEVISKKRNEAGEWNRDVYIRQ
# T1 sequence (Q13936 whole entry): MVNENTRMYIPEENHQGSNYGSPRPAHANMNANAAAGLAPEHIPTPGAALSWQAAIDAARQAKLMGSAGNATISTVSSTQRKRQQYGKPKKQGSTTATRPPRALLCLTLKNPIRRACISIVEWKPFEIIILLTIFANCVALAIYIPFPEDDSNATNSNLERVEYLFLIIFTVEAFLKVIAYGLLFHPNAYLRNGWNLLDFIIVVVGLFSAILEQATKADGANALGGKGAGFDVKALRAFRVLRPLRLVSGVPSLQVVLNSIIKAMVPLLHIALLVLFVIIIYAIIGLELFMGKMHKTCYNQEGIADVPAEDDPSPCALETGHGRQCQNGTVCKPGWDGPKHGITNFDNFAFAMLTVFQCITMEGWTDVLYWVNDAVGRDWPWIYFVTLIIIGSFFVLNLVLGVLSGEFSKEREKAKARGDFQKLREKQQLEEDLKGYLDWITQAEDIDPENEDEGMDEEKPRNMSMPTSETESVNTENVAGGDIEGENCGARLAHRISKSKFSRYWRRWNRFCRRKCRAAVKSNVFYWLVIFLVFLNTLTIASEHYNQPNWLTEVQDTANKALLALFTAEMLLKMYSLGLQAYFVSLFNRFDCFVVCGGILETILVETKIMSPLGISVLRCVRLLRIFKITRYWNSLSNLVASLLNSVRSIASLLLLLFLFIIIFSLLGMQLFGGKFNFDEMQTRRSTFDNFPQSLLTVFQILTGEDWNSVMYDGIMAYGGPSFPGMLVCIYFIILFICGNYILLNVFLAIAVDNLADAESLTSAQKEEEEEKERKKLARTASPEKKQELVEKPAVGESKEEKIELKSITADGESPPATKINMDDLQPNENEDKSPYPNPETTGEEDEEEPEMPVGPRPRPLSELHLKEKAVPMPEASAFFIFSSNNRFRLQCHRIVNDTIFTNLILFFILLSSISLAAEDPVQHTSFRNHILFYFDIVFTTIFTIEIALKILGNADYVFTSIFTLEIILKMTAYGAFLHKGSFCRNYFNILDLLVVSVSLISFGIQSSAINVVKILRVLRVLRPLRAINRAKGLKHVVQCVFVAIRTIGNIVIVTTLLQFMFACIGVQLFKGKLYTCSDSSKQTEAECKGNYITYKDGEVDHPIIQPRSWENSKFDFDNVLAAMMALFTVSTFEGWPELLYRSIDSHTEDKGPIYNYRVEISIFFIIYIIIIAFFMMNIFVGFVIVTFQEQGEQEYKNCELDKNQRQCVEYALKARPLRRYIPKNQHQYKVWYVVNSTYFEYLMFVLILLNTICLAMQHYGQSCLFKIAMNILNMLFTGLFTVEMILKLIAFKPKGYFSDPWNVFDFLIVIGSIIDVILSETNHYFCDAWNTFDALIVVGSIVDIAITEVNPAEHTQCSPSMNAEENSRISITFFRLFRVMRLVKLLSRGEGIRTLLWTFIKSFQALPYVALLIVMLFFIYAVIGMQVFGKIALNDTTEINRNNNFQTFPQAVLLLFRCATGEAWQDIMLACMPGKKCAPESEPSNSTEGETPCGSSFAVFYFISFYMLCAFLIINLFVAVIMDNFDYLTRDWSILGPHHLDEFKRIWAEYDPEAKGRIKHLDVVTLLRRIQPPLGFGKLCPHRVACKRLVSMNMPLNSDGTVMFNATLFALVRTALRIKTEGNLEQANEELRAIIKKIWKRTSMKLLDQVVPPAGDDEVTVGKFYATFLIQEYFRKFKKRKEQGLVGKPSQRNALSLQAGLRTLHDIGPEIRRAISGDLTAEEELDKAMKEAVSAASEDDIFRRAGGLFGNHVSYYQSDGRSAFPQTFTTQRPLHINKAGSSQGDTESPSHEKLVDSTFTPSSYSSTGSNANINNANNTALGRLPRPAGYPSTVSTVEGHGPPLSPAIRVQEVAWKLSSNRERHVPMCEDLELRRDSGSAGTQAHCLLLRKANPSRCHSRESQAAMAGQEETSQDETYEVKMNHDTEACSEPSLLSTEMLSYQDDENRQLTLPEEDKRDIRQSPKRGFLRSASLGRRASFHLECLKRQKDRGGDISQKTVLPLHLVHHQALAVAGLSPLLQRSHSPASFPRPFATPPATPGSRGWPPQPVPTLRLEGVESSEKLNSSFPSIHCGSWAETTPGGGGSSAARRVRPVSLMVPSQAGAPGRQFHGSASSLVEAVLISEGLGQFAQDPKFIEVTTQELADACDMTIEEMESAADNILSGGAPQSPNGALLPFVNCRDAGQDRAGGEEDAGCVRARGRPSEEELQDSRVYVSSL
Structure (SMILES),"Cardiotoxicity Cav1.2 channel, effect (Cav1.2 channel)",IC50 (Cav1.2 channel) [µM],"CYP3A4, effect (CYP3A4)",IC50 (CYP3A4) [µM],Protein binding assay recovery [1] [%],"Protein binding, percentage of free drug rating [1]",Protein binding [1] [%],Protein binding ([1]; listed as Azaspirofuran A) [%],"PTZ-induced seizure behavior, concentration-response retest [2]",Protein binding ([1]; listed as Pseurotin A2) [%]
CCc1ccc(C2=C(C)C(=O)C3(O2)C(=O)NC(OC)(C(=O)c2ccccc2)C3O)o1 (centres unmarked) [azaspirofuran A],No effect,> 50,No effect,> 88,66.7,Low,95,95.42,No antiseizure activity,–
CC/C=C\[C@H](O)[C@H](O)C1=C(C)C(=O)[C@]2(O1)C(=O)N[C@](OC)(C(=O)c1ccccc1)[C@H]2O [pseurotin A2],No effect,> 50,No effect,> 88,100,High,37,–,–,36.53
